Data published in patent US10980764B1, “Exogenous ketone supplements for reducing anxiety-related behavior” (priority 2016, dated 2021).

Legend:
Format in all cases: in vivo, rat
[1] = Blood βHB and glucose ~40 min after single dose, 1 year old SPD rats, Study 2; conditions: right after 5 min EPM test, compared to control group
Protocol: One year old SPD rats were gavaged and EPM test was performed 30 min after administration. Treatment groups BD, KE, KEMCT, KSMCT, KEKS.
Another study was carried out using substantially similar methodologies and procedures as in Study 1, specifically using the EPM test to evaluate anxiety-related behavior in 1-year old SD rats when administered ketone supplementation versus control.

SPD rats = test: EPM after 7 days oral gavage, SPD rats, Study 3; conditions: 7 days gavage 5 g/kg b.w./day
Protocol: (§1) Generally, exogenous ketone supplementation was tested by adding to food and feeding chronically for 83 days in SPD rats and administering sub-chronically for 7 days in both rat models by daily intragastric gavage bolus, followed by assessment of anxiety measures on EPM. The groups included standard diet (SD) or SD+ketone supplementation.
(§2) EPM (Coulbourn Instruments) was used to assess anxiety-related behavior of the rats after 83 days of chronic feeding or after 7 days of oral gavage. EPM experiments were carried out under non-stress conditions (in dimly lit and quiet room) between 12.00 and 14.00 hours.
(§3) The rats were transferred in their home cage to the experimental room 30 min prior to beginning the experiment. Briefly, rats were placed in the intersection of the four arms of the EPM, facing the open arm opposite to where the experimenter was and their behavior was recorded for 5 minutes. The amount of time spent and number of entries made on the open arms, closed arms and the center zones were video recorded. Latency to entry into the closed arms and the distance travelled in each zones was also measured in chronically treated SPD rats. […] At the end of the 5-minute test, the rats were removed from the maze and placed back into their home cage. The maze was cleaned with 70% alcohol and after it with tap water and dried with paper towel between rats. The primary method for data collection was a video-tracking system with computer interface and video camera (SMART V3.0 PLATFORM, Panlab, Harvard Apparatus, USA), to automatically collect behavioral data in SPD rats. A blinded observer was present in the testing room separated from the maze by a curtain, and collected EPM data in both SPD and WAG/Rij animals.
(§4) Results were considered significant when p<0.05.

WAG/Rij rats = test: EPM after 7 days oral gavage, WAG/Rij rats, Study 3; conditions: 7 days gavage ~2.5 g/kg b.w./day
Protocol: as §1, §2
as §3, with “The primary method for data collection was a video-tracking system with computer interface and video camera (SMART V3.0 PLATFORM, Panlab, Harvard Apparatus, USA), to automatically collect behavioral data in SPD rats. A blinded observer was present in the testing room separated from the maze by a curtain, and collected EPM data in both SPD and WAG/Rij animals.” left out

[2] = Body weight, SPD rats, Study 3; conditions: compared to control
Protocol: The body weight of all animals was recorded before the first ketone treatment (before) and on the last day of the ketone treatment (after).
as §4

[3] = Blood βHB and glucose compared between SPD and WAG/Rij rats, Study 1; conditions: for Glucose, Mean Diff., Tukey's multiple comparisons test (Compare S-D to WagRij) / βHB, Mean Diff., Tukey's multiple comparisons test (Compare S-D to WagRij): 7 days:S-D minus 7 days:WR, same supplement (5 vs 2.5 g/kg/day); for βHB levels in WAG/Rij rats compared to SPD rats: before (baseline) and after sub-chronic ketone supplementation
[4] = Blood βHB and glucose compared between the two animal models, Study 3; conditions: after sub-chronic ketone supplementation (7 days; ~2.5 vs ~5 g/kg b.w./day)
Description: as §4

**Q.** With `CC(=O)CC(=O)OCCC(C)OC(=O)CC(C)=O` (stereo not drawn) [KE, 1,3-butanediol-acetoacetate diester] as the compound, how does the Blood glucose level [1] read?
**A.** Its Blood glucose level is “significantly lower”.

**Q.** What about the “Entries to the closed arms” value (SPD rats; compared to control) of the same compound?
**A.** Its value is “less frequent”.

**Q.** And the “Time spent in the center” value (SPD rats; compared to control)?
**A.** Its value is “decreased”.

**Q.** And the “Time spent in the open arms” value (SPD rats; compared to control)?
**A.** The value was “increased”.

**Q.** What about the “Entries to open arms” value (WAG/Rij rats; compared to control) of the same compound?
**A.** The value was “less entries”.

**Q.** And the “Time spent in the center” value (WAG/Rij rats; compared to control (SD))?
**A.** The value was “more time”.

**Q.** What about the Body weight ([2]; after 7 days of treatment) of the same compound?
**A.** Its Body weight is “lower”.

**Q.** What about the Body weight ([2]; after chronic feeding) of the same compound?
**A.** Its Body weight is “lower”.

**Q.** And the “Glucose, Mean Diff., Tukey's multiple comparisons test (Compare S-D to WagRij)” value [3]?
**A.** The value was 27.5 mg/dL.

**Q.** What about the “βHB, Mean Diff., Tukey's multiple comparisons test (Compare S-D to WagRij)” value [3] of the same compound?
**A.** Its value is −0.9653 mmol/1.

**Q.** And the “βHB levels in WAG/Rij rats compared to SPD rats” value [3]?
**A.** Its value is “Higher”.

**Q.** What about the “βHB levels in WAG/Rij rats compared to SPD rats” value [4] of the same compound?
**A.** Its value is “Higher”.

**Q.** What does the source list for Na^+/K^+-βHB mineral salt [KS]?
**A.** Entries to the closed arms (SPD rats; compared to control): less frequent; Time spent in the center (SPD rats; compared to control): decreased; Entries to the center (SPD rats; compared to control (SD)): fewer times; Glucose, Mean Diff., Tukey's multiple comparisons test (Compare S-D to WagRij) [3]: 15.28 mg/dL; βHB, Mean Diff., Tukey's multiple comparisons test (Compare S-D to WagRij) [3]: −0.5614 mmol/1; βHB levels in WAG/Rij rats compared to SPD rats [3]: Higher
